Source: ChEMBL document CHEMBL4819047, “Discovery of a new class of multi-target heterocycle piperidine derivatives as potential antipsychotics with pro-cognitive effect” (Bioorg Med Chem Lett, 2021)
pIC50, pKi: −log10 of the molar value.

How the values were obtained:
[1] = target: 5-hydroxytryptamine receptor 2A (Homo sapiens, UniProt P28223)
D(2) dopamine receptor = D(2) dopamine receptor (Homo sapiens, UniProt P14416)
Description: Binding affinity to dopamine D2 receptor (unknown origin)

[2] = target: T1, 5-hydroxytryptamine receptor 1A (Homo sapiens, UniProt P08908)
T1 sequence (P08908 whole entry): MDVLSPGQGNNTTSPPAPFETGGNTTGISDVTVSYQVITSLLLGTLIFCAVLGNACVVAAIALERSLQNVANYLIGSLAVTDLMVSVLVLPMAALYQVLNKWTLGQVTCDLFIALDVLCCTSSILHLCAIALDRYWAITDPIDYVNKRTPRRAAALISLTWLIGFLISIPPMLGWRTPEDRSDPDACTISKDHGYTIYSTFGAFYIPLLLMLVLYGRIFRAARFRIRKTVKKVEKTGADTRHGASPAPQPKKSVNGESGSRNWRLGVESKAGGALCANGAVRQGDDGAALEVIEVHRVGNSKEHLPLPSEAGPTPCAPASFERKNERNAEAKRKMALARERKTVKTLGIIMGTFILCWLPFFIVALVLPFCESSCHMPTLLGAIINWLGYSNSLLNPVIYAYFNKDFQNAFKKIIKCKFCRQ

Histamine H3 receptor = Histamine H3 receptor (Homo sapiens, UniProt Q9Y5N1)
Description: Binding affinity to histamine H3 receptor (unknown origin)

Histamine H1 receptor = Histamine H1 receptor (Homo sapiens, UniProt P35367); assay type: ADME
Description: Binding affinity to histamine H1 receptor (unknown origin)

D(3) dopamine receptor = D(3) dopamine receptor (Homo sapiens, UniProt P35462)
Description: Binding affinity to dopamine D3 receptor (unknown origin)

[3] = target: T2, Alpha-1A adrenergic receptor (Homo sapiens, UniProt P35348)
T2 sequence (P35348 whole entry): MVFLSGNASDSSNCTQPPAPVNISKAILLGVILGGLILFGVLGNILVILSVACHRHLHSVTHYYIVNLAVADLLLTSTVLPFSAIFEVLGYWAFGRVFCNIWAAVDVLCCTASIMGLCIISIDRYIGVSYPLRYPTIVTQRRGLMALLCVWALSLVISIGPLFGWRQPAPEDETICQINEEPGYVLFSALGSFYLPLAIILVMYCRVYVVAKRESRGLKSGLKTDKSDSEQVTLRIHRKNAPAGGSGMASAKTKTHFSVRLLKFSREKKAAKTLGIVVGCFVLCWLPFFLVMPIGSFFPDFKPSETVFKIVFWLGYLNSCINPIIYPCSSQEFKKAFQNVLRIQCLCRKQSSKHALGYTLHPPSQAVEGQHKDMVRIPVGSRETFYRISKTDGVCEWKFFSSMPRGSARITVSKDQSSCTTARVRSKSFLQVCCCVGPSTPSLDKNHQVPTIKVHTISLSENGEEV
Description: Binding affinity to alpha1 adrenoceptor (unknown origin)

[4] = target: Voltage-gated inwardly rectifying potassium channel KCNH2 (Homo sapiens, UniProt Q12809)
Description: Inhibition of human ERG by automated patch method relative to control

[5] = target: T3, 5-hydroxytryptamine receptor 2C (Homo sapiens, UniProt P28335)
T3 sequence (P28335 whole entry): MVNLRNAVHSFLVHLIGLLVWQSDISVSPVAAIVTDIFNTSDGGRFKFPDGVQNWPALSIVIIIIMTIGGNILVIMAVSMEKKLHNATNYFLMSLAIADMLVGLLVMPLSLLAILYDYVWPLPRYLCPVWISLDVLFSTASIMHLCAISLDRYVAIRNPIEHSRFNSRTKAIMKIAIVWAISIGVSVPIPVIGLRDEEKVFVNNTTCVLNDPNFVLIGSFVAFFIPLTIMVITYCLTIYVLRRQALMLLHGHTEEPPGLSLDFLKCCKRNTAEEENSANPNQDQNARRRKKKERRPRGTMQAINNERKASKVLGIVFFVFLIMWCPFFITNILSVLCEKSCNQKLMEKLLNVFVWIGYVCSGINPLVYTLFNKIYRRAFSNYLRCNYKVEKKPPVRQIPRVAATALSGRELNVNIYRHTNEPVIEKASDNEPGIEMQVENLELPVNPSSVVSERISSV

[6] = target: 5-hydroxytryptamine receptor 6 (Homo sapiens, UniProt P50406)
Sequence of 5-hydroxytryptamine receptor 6 (P50406 whole entry): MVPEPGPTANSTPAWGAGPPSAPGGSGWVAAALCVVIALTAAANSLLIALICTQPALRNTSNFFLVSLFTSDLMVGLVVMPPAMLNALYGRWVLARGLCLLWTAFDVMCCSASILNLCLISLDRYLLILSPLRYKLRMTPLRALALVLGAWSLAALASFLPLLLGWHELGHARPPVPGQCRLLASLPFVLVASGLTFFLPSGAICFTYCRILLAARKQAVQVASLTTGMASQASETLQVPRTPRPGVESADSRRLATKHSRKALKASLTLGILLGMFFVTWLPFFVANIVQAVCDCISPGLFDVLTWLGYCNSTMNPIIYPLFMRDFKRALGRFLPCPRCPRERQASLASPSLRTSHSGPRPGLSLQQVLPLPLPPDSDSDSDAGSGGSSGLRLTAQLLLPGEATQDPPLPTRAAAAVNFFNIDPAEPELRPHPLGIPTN

Sequence of D(2) dopamine receptor (P14416 whole entry): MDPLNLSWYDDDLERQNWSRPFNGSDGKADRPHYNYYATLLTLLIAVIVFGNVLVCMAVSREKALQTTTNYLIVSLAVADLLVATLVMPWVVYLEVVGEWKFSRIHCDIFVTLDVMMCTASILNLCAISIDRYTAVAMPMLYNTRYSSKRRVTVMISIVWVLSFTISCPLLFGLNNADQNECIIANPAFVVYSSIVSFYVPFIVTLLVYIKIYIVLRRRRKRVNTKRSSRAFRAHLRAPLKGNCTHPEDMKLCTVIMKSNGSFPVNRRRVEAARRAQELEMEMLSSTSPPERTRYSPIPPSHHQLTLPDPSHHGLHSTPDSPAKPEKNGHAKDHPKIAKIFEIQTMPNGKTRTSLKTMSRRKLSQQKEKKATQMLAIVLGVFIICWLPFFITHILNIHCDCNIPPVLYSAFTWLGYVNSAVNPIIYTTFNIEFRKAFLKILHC
Sequence of 5-hydroxytryptamine receptor 2A (P28223 whole entry): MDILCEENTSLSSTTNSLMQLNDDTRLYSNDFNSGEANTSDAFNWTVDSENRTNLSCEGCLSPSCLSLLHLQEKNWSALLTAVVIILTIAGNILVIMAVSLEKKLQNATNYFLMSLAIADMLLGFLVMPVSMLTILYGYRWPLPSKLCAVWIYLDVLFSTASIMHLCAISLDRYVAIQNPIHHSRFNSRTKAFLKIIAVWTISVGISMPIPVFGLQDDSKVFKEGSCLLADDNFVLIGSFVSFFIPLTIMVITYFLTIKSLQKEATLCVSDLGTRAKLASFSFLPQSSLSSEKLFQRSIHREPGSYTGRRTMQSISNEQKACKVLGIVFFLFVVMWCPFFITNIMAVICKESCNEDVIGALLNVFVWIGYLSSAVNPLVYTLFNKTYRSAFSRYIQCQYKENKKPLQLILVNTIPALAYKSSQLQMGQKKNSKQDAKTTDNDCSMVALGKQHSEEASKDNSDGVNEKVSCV
Sequence of D(3) dopamine receptor (P35462 whole entry): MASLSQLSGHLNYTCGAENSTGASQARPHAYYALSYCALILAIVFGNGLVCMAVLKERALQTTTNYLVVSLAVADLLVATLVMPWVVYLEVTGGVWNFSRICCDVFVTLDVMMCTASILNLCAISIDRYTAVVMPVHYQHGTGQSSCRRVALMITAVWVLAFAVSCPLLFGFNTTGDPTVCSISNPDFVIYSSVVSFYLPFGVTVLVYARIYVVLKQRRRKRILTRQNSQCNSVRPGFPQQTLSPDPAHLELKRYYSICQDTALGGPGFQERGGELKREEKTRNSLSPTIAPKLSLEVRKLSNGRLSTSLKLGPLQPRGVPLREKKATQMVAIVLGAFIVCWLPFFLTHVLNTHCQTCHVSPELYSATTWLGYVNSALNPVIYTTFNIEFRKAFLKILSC
Sequence of Histamine H1 receptor (P35367 whole entry): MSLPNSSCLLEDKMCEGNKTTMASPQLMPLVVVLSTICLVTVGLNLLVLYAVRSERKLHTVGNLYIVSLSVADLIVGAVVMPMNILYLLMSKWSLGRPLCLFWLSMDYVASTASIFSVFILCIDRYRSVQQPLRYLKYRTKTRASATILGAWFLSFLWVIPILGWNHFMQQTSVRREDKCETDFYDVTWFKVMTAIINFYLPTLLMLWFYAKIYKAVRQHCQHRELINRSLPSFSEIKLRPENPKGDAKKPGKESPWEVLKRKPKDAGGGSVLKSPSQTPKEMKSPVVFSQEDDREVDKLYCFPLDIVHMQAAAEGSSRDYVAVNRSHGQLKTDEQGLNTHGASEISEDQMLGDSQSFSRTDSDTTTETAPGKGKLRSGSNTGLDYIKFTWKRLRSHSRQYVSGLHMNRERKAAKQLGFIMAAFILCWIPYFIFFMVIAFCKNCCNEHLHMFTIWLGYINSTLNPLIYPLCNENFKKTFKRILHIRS
Sequence of Histamine H3 receptor (Q9Y5N1 whole entry): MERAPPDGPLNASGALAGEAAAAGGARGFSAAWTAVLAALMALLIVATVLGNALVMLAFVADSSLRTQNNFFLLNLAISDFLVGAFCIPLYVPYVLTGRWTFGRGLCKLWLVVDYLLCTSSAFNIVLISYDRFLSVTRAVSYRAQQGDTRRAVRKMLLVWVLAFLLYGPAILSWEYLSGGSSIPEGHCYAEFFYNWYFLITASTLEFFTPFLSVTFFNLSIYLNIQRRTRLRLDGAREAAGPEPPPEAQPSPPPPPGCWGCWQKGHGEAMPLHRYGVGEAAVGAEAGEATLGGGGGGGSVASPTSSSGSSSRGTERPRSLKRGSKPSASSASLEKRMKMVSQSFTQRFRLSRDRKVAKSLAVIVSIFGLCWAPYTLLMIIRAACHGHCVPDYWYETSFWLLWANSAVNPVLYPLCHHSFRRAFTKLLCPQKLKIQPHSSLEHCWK
Sequence of Voltage-gated inwardly rectifying potassium channel KCNH2 (Q12809 whole entry): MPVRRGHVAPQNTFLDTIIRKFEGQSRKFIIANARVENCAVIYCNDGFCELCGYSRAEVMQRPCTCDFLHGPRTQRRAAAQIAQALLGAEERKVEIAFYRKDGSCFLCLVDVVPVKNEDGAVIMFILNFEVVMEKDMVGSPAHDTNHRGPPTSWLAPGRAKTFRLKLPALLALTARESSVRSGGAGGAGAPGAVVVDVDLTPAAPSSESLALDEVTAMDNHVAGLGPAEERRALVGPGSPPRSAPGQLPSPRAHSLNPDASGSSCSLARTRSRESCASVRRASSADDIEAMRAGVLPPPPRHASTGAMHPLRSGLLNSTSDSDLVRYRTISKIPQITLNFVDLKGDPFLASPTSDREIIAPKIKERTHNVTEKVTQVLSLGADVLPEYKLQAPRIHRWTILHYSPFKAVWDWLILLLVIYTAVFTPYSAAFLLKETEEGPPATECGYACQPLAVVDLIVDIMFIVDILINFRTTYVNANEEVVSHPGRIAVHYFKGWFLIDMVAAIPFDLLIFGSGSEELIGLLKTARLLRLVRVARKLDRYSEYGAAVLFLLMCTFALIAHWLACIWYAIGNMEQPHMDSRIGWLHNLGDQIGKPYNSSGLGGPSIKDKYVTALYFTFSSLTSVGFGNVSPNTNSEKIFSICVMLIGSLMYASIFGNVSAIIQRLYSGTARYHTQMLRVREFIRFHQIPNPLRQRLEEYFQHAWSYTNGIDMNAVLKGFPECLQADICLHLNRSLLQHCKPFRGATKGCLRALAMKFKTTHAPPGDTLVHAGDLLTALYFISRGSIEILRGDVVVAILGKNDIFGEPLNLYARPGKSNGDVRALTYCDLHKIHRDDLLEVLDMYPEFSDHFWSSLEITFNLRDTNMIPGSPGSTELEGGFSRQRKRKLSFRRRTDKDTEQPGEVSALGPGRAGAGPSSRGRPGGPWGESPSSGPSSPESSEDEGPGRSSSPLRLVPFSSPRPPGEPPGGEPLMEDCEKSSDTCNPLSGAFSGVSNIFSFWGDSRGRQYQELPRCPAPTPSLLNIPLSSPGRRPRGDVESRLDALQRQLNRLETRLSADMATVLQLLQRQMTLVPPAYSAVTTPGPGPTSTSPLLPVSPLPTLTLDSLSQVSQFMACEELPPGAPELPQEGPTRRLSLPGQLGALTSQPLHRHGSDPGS

| Structure (SMILES) | pKi [1] | pKi (D(2) dopamine receptor) | pKi [2] | pKi (Histamine H3 receptor) | pKi (Histamine H1 receptor) | pKi (D(3) dopamine receptor) | pKi [3] | pIC50 [4] | pKi [5] | pKi [6] |
| --- | --- | --- | --- | --- | --- | --- | --- | --- | --- | --- |
| COc1cc(CN2CCOCC2)ccc1OCCCN1CCC(c2noc3cc(F)ccc23)CC1 | 8.31 | 8.59 | 6.95 | 6.83 | – | – | – | – | – | – |
| CC1CCN(CCc2ccc(OCCCCN3CCC(c4noc5cc(F)ccc45)CC3)cc2)CC1 | 8.29 | 8.57 | 8.36 | 7.80 | – | – | – | – | – | – |
| CN1CCN(Cc2ccc(OCCCN3CCC(c4noc5cc(F)ccc45)CC3)cc2)CC1 | 8.33 | 8.77 | 7.92 | 8.09 | 6.14 | 7.63 | 6.48 | 5.81 | 6.24 | 7.03 |
| Fc1ccc2c(C3CCN(CCCOc4ccc(CN5CCCCC5)cc4F)CC3)noc2c1 | 8.19 | 7.99 | 7.04 | 6.57 | – | – | – | – | – | – |
| Fc1ccc2c(C3CCN(CCCOc4ccc(CN5CCOCC5)cc4F)CC3)noc2c1 | 8.25 | 8.72 | 7.00 | 6.71 | – | – | – | – | – | – |
| Fc1ccc2c(C3CCN(CCCOc4ccc(CN5CCCC5)cc4Cl)CC3)noc2c1 | 8.00 | 7.85 | 7.10 | 6.90 | – | – | – | – | – | – |
| Fc1ccc2c(C3CCN(CCCOc4ccc(CN5CCOCC5)c(Cl)c4)CC3)noc2c1 | 8.20 | 8.27 | 6.82 | 6.79 | – | – | – | – | – | – |
| CC1CCN(CCc2ccc(OCCCN3CCC(c4noc5cc(F)ccc45)CC3)cc2)CC1 | 7.37 | 8.13 | 8.02 | 7.92 | – | – | – | – | – | – |
| Cc1cc(OCCCN2CCC(c3noc4cc(F)ccc34)CC2)ccc1CN1CCCC1 | 7.94 | 7.90 | 7.05 | 6.95 | – | – | – | – | – | – |
| Cc1cc(=O)oc2c(Cl)c(OCCCCN3CCC(c4noc5cc(F)ccc45)CC3)ccc12 | 9.52 | 8.59 | 8.48 | – | 5.95 | 8.37 | 5.59 | – | 5.77 | 6.64 |
| Fc1ccc2c(C3CCN(CCCOc4ccc(CN5CCOCC5)c(F)c4)CC3)noc2c1 | 8.28 | 8.70 | 7.04 | 6.73 | – | – | – | – | – | – |
| Fc1ccc2c(C3CCN(CCCOc4ccc(CN5CCCCC5)cc4)CC3)noc2c1 | 8.29 | 7.97 | 7.05 | 6.57 | – | – | – | – | – | – |
| CN1CCN(Cc2ccc(OCCCCN3CCC(c4noc5cc(F)ccc45)CC3)cc2)CC1 | 8.37 | 8.72 | 7.91 | 8.04 | 6.19 | 7.42 | 6.45 | 5.98 | 6.37 | 6.91 |
| Fc1ccc2c(C3CCN(CCCCOc4ccc(CN5CCOCC5)cc4)CC3)noc2c1 | 8.35 | 8.70 | 7.02 | 6.81 | – | – | – | – | – | – |
